Earlier results, collected in patent US12036548B2, “Organs-on-chips as a platform for epigenetics discovery” (EMULATE, INC., priority 2018, dated 2024).

Conditions: normal nutritional iodine supply

For II [iodine], which “fraction taken up and stored by a normally functioning thyroid gland” value is on record?
The value was 15-30%.
